Results taken from patent US6060473A, “7-azabicyclo[2.2.1]-heptane and -heptene derivatives as cholinergic receptor ligands” (priority 1996, dated 2000).
Read-outs that look alike come from different tables or passages of the source.

Columns and labels:
[1] = target: T1, acetylcholine nicotinic receptor (Rattus norvegicus, UniProt P09483+P12390); test: Nicotinic receptor binding, [3H]-NMCI radioligand, rat cortex (Table 6)
T1 construct: rat cortex as the tissue substrate; from tissue; host or cells: rat cortex
Procedure: 7-Aza-bicyclo[2.2.1]-heptanes and -heptenes were evaluated for their ability to bind to the acetylcholine nicotinic receptor using a standard binding assay, e.g. X. Zhang and A. Nordberg, Arch. Pharmacol., 348, 28 (1993); R. E. Middleton and J. B. Cohen, Biochemistry, 30, 6987 (1991), with nicotine sulfate as the reference compound, rat cortex as the tissue substrate, and a [^3 H]-NMCI radioligand.

[2] = Tail-flick assay (Tables 7 and 8, species not stated per value); type: in vivo, mice and rats; conditions: for ED50: Mus musculus, sc, 5 min, read-out: Tail-Flick Assay ED50; for Tail-Flick Assay % Effect after 5 min: Table 7, 5 min; for Tail-Flick Assay % Effect after 5 min / Tail-Flick Assay % Effect after 60 min: head also prints ED50 (mg/kg); for Tail-Flick Assay % Effect after 60 min: Table 7, 60 min
Procedure: (§1) Female CD-1 mice (20-25 g, Charles River Labs) and male CD rats (300-400 g, Charles River Labs) were housed in groups of two and five, respectively. Animals were given food and water ad libitum. Most studies were performed using groups of 5 animals per treatment unless otherwise noted.
(§2) Antinociceptive effects (i.e., analgesia) of test compounds in mice and rats were measured by the tail-flick test using a tail-flick analgesia meter (EMDIE Instrument Co.). A maximum latency of 10 sec was imposed if no response occurred within that time. Antinociceptive activity, measured as % MPE, was calculated as [(test-control)/(10-control)×100)].
(§3) Duration of compound and (-)-nicotine-induced antinociception was assessed in mice by measuring antinociception at 2, 5, 10, 20 min after compound (20 μg/kg, s.c.) or nicotine (5 mg/kg, s.c.).
Mice (7/group) or rats were pretreated i.v. (0.9% saline or antagonist, mecamylamine, hexamethonium, atropine, naloxone or yohimbine) 10 minutes before administration of compound or nicotine at different doses. […]

[3] = Straub-Tail assay (Table 5); type: in vivo
Description: A wide variety of biological assays have been used to evaluate the ability of a compound to act as an analgesic. Any of these known assays can be used to evaluate the analgesic ability of the compounds disclosed herein. The Straub-tail reaction, which is characteristic of opiate alkaloids, has been used as an assay for opiate agonists and antagonists. The assay is described in detail in Br. J. of Pharmacol. 1969, 36, 225. Another accepted assay for analgesic activity is the hot plate analgesia assay, described in J. of Pharmacol. Exp. Therap. 1953, 107, 385. An assay for the evaluation of the ability of a compound to bind to an opiate receptor is described in Mol. Pharmacol. 1974, 10, 868.
Table 5 provides the analgesic activity measured as ED50 (μg/Kg) for selected compounds disclosed herein, as determined using the Straub-Tail assay, as describe by J. Daily et al. J. Am. […] Chem. Soc. 1992, 114, 3475; T. Li, et al. Bioorganic and Medicinal Chemistry Letters 1993, 3, 2759.

[4] = target: T2, nicotinic cholinergic receptor (Rattus norvegicus, UniProt P09483+P12390); test: Competition with [3H](-)-cytisine for binding to rat cortex (brain) receptors (Tables 7, 8, 9)
T2 construct: A membrane fraction from rat brain cortex; tissue Harlan Laboratories; host or cells: rat brain cortex membranes
Description: [^3 -H](-)-Cytisine is a nicotinic cholinergic receptor ligand that binds with high affinity to the a4b2 subtype receptor, the major subtype in rodent brain accounting for >90% of (-)-nicotine binding sites (Flores, et al., 1992; Whiting, et al., 1992). This nicotinic receptor subtype is most sensitive to (-)-nicotine compared to other receptor subtypes (Connolly, et al., (1992). Compounds that compete with cytisine for the nicotinic cholineric receptor are considered nicotine receptor agonists.
A membrane fraction from rat brain cortex (Harlan Laboratories) was prepared using an adaptation of an established method (Pabreza, et al., 1991). Compound and [^3 H]-(-)-cytisine (New England Nuclear, 42 Ci/mmol) were mixed before addition of membrane (0.5 mg protein) and incubated in glass tubes for 75 minutes on ice; total assay volume was 0.24 ml. Parallel assays to determine nonspecific binding were incubated in the presence of 10 uM (-)-nicotine (Sigma). Bound radioactivity was isolated by vacuum filtration onto glass microfiber filters (Whatman, GF-B) using millipore tubs, followed by 3×4 ml buffer wash. Filters were prerinsed with 0.5% polyethyleneimine prior to sample filtration to reduce nonspecific binding. Bound radioactivity was quantitated by scintillation counting.

[5] = Tail-flick assay, mouse (Table 9); type: in vivo; conditions: sc, 5 min
Procedure: as §1, §2, §3
(§4) Mice (7/group) or rats were pretreated i.v. (0.9% saline or antagonist, mecamylamine, hexamethonium, atropine, naloxone or yohimbine) 10 minutes before administration of compound or nicotine at different doses. A control response (1.5-4 sec) was determined for each animal before treatment and test latencies were assessed at 5 minutes after compound administration (5 ml/kg, s.c.) or 2 min after nicotine (5 ml/kg, s.c.).

[6] = Tail-flick assay, rat (Table 9); type: in vivo; conditions: sc, 5 min
Procedure: as §1, §2, §4

[7] = opiate antagonist naloxone; cited from earlier work
[8] = tested on: nicotinic cholinergic receptor; conditions: in words; cited from earlier work
[9] = tested on: a4b2 subtype receptor; conditions: in words; cited from earlier work
[10] = Table 7, rat brain cortex membranes, read-out: Nicotine Receptor Cytisine IC50
[11] = Table 9, read-out: rat brain, 3H-cytisine binding IC50

Compound: CN1C2CCC1C(c1ccc(Cl)nc1)C2 (stereo not shown)
- Inhibition % ([1]; testing level 10^-9): 22%
- Inhibition % ([1]; testing level 10^-11): 5%

Compound: c1cncc(C2CC3CCC2N3)c1 (stereo not shown)
- Inhibition % ([1]; testing level 10^-9): 103%

Compound: C[N+]1(C)C2CCC1C(c1ccc(Cl)nc1)C2 (stereo not shown)
- Inhibition % ([1]; testing level 10^-9): 49%

Compound: N=CN1C2CCC1C(c1ccc(Cl)nc1)C2 (stereo not shown)
- Inhibition % ([1]; testing level 10^-9): 49%
- Inhibition % ([1]; testing level 10^-11): 22%

Compound: N=CN1C2CCC1C(c1cccnc1)C2 (stereo not shown)
- Inhibition % ([1]; testing level 10^-9): 5%

Compound: Cc1cc(C2CC3CCC2N3)on1 (stereo not shown)
- ED50 [2]: > 2 mg/kg

Compound: Cc1cc(C2CC3CCC2N3C)on1 (stereo not shown)
- ED50 ([2]; Table 8): ~1 mg/kg

Compound: c1ccc2nc(C3CC4CCC3N4)ccc2c1 (stereo not shown)
- ED50 [2]: > 2 mg/kg

Compound: Clc1ccc([C@H]2C[C@H]3CC[C@@H]2N3)cn1 (relative stereo)
- ED50 [3]: > 0.1 mg/kg

Compound: Clc1ccc([C@@H]2C[C@H]3CC[C@@H]2N3CC2CC2)cn1 (relative stereo)
- effect at 1000 μg/Kg ([3]; @ 1000 (μg/Kg)): 100%

Compound: C[N+]1(C)[C@@H]2CC[C@H]1[C@H](c1ccc(Cl)nc1)C2 (relative stereo)
- ED50 ([3]; read-out: ED50): 0.1 to 0.2 mg/kg

Compound: Fc1ccc([C@H]2C[C@H]3CC[C@@H]2N3)cn1 (relative stereo)
- ED50 ([3]; read-out: ED50): ~0.01 mg/kg

Compound: N=CN1[C@@H]2CC[C@H]1[C@H](c1ccc(Cl)nc1)C2 (relative stereo)
- effect at 100 ([3]; @ 100 (dose unit not given; column μg/Kg)): 99%

Compound: Cc1nnc([C@H]2C[C@H]3CC[C@@H]2N3C)o1 (relative stereo)
- IC50 [4, 10]: 32000 nM
- Tail-Flick Assay % Effect after 5 min [2]: -2.9%
- Tail-Flick Assay % Effect after 60 min [2]: -3.6%

Compound: Cc1nnc([C@@H]2C[C@H]3CC[C@@H]2N3C)o1 (relative stereo)
- IC50 [4, 10]: 150 nM
- Tail-Flick Assay % Effect after 5 min [2]: 6.7%
- Tail-Flick Assay % Effect after 60 min [2]: 24.6%

Compound: Cc1noc([C@@H]2C[C@H]3CC[C@@H]2N3C)n1 (relative stereo) [racemic A/B, (±)-exo-2-(3-methyl-1,2,4-oxadiazol-5-yl)-7-methyl-7-azabicyclo[2.2.1]heptane]
- ED50 [5]: 0.2 mg/kg
- IC50 [4, 11]: 100 nM
- ED50 [6]: 2.2 mg/kg

Compound: Cc1noc([C@@H]2C[C@H]3CC[C@@H]2N3C)n1 (single isomer, unassigned) [A]
- IC50 [4, 11]: 1400 nM

Compound: Cc1noc([C@@H]2C[C@H]3CC[C@@H]2N3C)n1 (single isomer, unassigned) [B]
- IC50 [4, 11]: 18 nM

Compound: Clc1ccc([C@@H]2C[C@H]3CC[C@@H]2N3)cn1 (single isomer, unassigned) [epibatidine, exo-2-(2-chloro-5-pyridyl)-7-azabicyclo [2.2.1]heptane]
- reversal of Straub-tail effect by naloxone [7]: not reversed by the opiate antagonist naloxone
- nicotinic cholinergic receptor agonism [8]: nicotinic cholinergic receptor agonist

Compound: Clc1ccc(C2CC3CCC2N3)cn1 (stereo not shown) [1-epibatidine]
- ED50 [3]: 0.009 mg/kg

Compound: O=c1cccc2n1C[C@@H]1CNC[C@H]2C1 [[^3 -H](-)-Cytisine]
- affinity to a4b2 subtype receptor [9]: high affinity

Compound: Clc1ccc([C@@H]2C[C@H]3CC[C@@H]2N3)cn1 [d-epibatidine]
- ED50 [3]: 0.0075 mg/kg
